Test results reported in publication PMC7179180, “Novel 2,4-Disubstituted-1,3-Thiazole Derivatives: Synthesis, Anti-Candida Activity Evaluation and Interaction with Bovine Serum Albumine” (Molecules, 2020).

Molecular target: T1, bovine serum albumin (BSA) (Bos taurus, UniProt P02769)
T1 construct: gene ALB; native plasma protein, commercial BSA fraction V (Merck), mature single chain of 583 residues, no further purification
Test: Trp fluorescence quenching
Assay type: binding
Settings: pH 7.4, room temperature, BSA 1.5 μM, double-log
Source text: Trp fluorescence quenching on bovine serum albumin (BSA)

T1 sequence (P02769 25-607): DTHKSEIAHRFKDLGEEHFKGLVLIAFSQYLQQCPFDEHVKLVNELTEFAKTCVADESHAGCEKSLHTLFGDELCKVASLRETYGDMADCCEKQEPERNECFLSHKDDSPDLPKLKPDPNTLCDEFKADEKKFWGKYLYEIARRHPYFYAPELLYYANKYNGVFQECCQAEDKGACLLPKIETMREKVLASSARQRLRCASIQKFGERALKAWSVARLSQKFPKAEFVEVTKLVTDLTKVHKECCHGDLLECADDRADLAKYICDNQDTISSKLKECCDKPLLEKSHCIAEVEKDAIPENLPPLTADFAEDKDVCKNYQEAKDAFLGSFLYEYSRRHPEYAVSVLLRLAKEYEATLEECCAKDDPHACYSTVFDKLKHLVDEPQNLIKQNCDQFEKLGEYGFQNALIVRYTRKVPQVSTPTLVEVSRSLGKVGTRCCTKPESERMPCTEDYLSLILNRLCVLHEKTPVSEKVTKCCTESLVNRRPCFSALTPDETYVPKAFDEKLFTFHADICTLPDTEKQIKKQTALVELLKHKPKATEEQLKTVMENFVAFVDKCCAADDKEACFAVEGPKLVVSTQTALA

SMILES	Kb × 10^4 (M^-1)
COc1ccc(-c2csc(COc3cc(C)ccc3C(C)C)n2)cc1 [4a, 2-((2-isopropyl-5-methylphenoxy)methyl)-4-(4-methoxyphenyl)thiazole]	6.60 × 10^4 M^-1
Cc1ccc(C(C)C)c(OCc2nc(-c3ccc(Cl)cc3)cs2)c1 [4b, 4-(4-chlorophenyl)-2-((2-isopropyl-5-methylphenoxy)methyl)thiazole]	6.98 × 10^4 M^-1
Cc1ccc(C(C)C)c(OCc2nc(-c3ccc(Br)cc3)cs2)c1 [4c, 4-(4-bromophenyl)-2-((2-isopropyl-5-methylphenoxy)methyl)thiazole]	2.61 × 10^4 M^-1
Cc1ccc(C(C)C)c(OCc2nc(-c3ccc4ccccc4c3)cs2)c1 [4d, 2-((2-isopropyl-5-methylphenoxy)methyl)-4-(naphthalen-2-yl)thiazole]	8.51 × 10^4 M^-1

Results, then the compound that gave them:

Kb × 10^4 (M^-1)	SMILES
5.64 × 10^4 M^-1	COc1ccc(-c2csc(NN=C(COc3cc(C)ccc3C(C)C)c3ccccc3)n2)cc1 [7a, 2-(2-(2-(2-isopropyl-5-methylphenoxy)-1-phenylethylidene)hydrazineyl)-4-(4-methoxyphenyl)thiazole]
18.02 × 10^4 M^-1	Cc1ccc(C(C)C)c(OCC(=NNc2nc(-c3ccc(Cl)cc3)cs2)c2ccccc2)c1 [7b, 4-(4-chlorophenyl)-2-(2-(2-(2-isopropyl-5-methylphenoxy)-1-phenylethylidene)hydrazineyl)thiazole]
1.85 × 10^4 M^-1	Cc1ccc(C(C)C)c(OCC(=NNc2nc(-c3ccc(Br)cc3)cs2)c2ccccc2)c1 [7c, 4-(4-bromophenyl)-2-(2-(2-(2-isopropyl-5-methylphenoxy)-1-phenylethylidene)hydrazineyl)thiazole]
9.14 × 10^4 M^-1	Cc1ccc(C(C)C)c(OCC(=NNc2nc(-c3ccc4ccccc4c3)cs2)c2ccccc2)c1 [7d, 2-(2-(2-(2-isopropyl-5-methylphenoxy)-1-phenylethylidene)hydrazineyl)-4-(naphthalen-2-yl)thiazole]
